Test results: US20220298213A1, “IN VIVO ENGINEERED CEREBLON PROTEIN” (Vividion Therapeutics, Inc., priority 2018, published 2022)

Tests used:
Assay in all cases: Inhibition of probe labeling at screening concentration (Table 1)
Assay type in all cases: binding
CRBN-287 = CRBN-287 (Homo sapiens, UniProt Q96SW2); set-up: endogenous in cells; host or cells: cell lysate; settings: native folded protein, read-out: Percentage inhibition of probe labeling, CRBN_287
Protocol: (§1) Cells were resuspended in cold PBS on ice and sonicated with a probe sonicator to achieve lysis. 200 μL of lysate containing 5 mg/ml proteome was treated with 2 μL of 100× compound stock in a 2-mL deep-well plate. The treated lysate was subsequently incubate at 25° C. for 1 hr with shaking at 600 rpm. The treated lysate was further incubated with 2 μL of 10 mM desthiobiotin iodoacetamide probe at 25° C. for 1 hr with shaking at 600 rpm. Next, the lysate was further treat with 20 μL of solution of PBS containing 11 mM MgSO4 and 2.5% Turbonuclease stock and incubated at 25° C. for 20 minutes with shaking at 600 rpm. 1.7 mL ice-cold acetone was added to each well and incubated at −20° C. for 2 hr, followed by max speed (4200 rpm) spin for 45 min. Acetone was then decanted and the plates were blotted to remove acetone. The plates were then dried in open air for 20 minutes. After drying, the plates were then covered with foil seal and stored at −80° C. overnight.

CRBN-318 = CRBN-318 (Homo sapiens, UniProt Q96SW2); set-up: endogenous in cells; host or cells: cell lysate; settings: native folded protein, read-out: Percentage inhibition of probe labeling, CRBN_318
Sequence of CRBN-318 (Q96SW2 whole entry): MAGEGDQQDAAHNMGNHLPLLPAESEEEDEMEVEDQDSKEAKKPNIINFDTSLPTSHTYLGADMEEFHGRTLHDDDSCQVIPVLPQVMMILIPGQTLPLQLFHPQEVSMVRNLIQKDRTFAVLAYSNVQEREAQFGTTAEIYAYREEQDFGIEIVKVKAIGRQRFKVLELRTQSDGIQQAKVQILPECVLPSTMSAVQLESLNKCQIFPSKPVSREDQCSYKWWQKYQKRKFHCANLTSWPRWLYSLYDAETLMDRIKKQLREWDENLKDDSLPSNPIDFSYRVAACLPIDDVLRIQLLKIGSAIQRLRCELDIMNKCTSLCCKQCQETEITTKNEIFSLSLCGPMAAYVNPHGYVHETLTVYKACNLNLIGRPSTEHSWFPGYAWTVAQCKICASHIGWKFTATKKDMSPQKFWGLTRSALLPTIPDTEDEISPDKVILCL
Protocol: as §1

PRTN_E = settings: 500 μM
Protocol: as §1

PRTN_A = settings: 500 μM
Protocol: as §1

PRTN_G = settings: 500 μM
Protocol: as §1

PRTN_I = settings: 500 μM
Protocol: as §1

PRTN_H = settings: 500 μM
Protocol: as §1

PRTN_C = settings: 500 μM
Protocol: as §1

PRTN_F = settings: 500 μM
Protocol: as §1

PRTN_D = settings: 500 μM
Protocol: as §1

PRTN_B = settings: 500 μM
Protocol: as §1

PRTN_J = settings: 500 μM
Protocol: as §1

PRTN_K = settings: 500 μM
Protocol: as §1

Sequence of CRBN-287 (Q96SW2 whole entry): as above

SMILES | inhibition at 500 µM (CRBN-287) [%] | inhibition at 500 µM (CRBN-318) [%] | Percentage inhibition of probe labeling, PRTN_E (PRTN_E) [%] | Percentage inhibition of probe labeling, PRTN_A (PRTN_A) [%] | Percentage inhibition of probe labeling, PRTN_G (PRTN_G) [%] | Percentage inhibition of probe labeling, PRTN_I (PRTN_I) [%] | Percentage inhibition of probe labeling, PRTN_H (PRTN_H) [%] | Percentage inhibition of probe labeling, PRTN_C (PRTN_C) [%] | Percentage inhibition of probe labeling, PRTN_F (PRTN_F) [%] | Percentage inhibition of probe labeling, PRTN_D (PRTN_D) [%] | Percentage inhibition of probe labeling, PRTN_B (PRTN_B) [%] | Percentage inhibition of probe labeling, PRTN_J (PRTN_J) [%] | Percentage inhibition of probe labeling, PRTN_K (PRTN_K) [%]
CCc1ccccc1-c1cccc(NC2CCN(C(=O)/C=C/CC(C)C)CC2)c1 | 98 | 96 | 12 | 10 | 13 | 14 | 4 | 14 | 2 | 17 | 3 | 11 | 22
C=CC(=O)N1CCC(Nc2cc(C(N)=O)cc(-c3ccccc3CC)c2)CC1 | 97 | 98 | 8 | −2 | 6 | −1 | 6 | 19 | 4 | 18 | 0 | 7 | 12
C=CC(=O)N1CCC(Cc2cccc(-c3ccccc3NC(C)=O)c2)CC1 | 69 | 71 | 9 | 8 | 12 | −1 | 2 | 3 | 7 | 8 | 8 | 21 | 20
C=CC(=O)N1CCC(Oc2cc(C)cc(-c3ccccc3OC)c2)CC1 | 94 | 94 | 11 | 7 | 13 | 7 | 9 | 18 | 6 | 9 | 2 | 6 | 13
